Tests used:
NMDA receptor = test: Whole-cell patch clamp of NMDA-induced current in hippocampal neurons; format: cell-based, rat; settings: for pooled NMDA current responses (normalized peak and plateau currents) / recovery of NMDA-induced current after compound was washed out: compound 500 uM co-applied with NMDA 200 uM; for pooled NMDA current responses (normalized peak and plateau currents): vs DMSO, n=6; for recovery of NMDA-induced current after compound was washed out: single hippocampal neuron
Description: Hippocampal neurons were prepared from embryonic day 18 Sprague-Dawley rats. After the hippocampus had been removed from the brain, isolated cells were plated onto Poly d-Lysine (PDL) (P0899, Sigma)-coated 35 mm dishes (153066, NUNC) at a density of 3×10^5 cell per plate using Neurobasal Medium (NB) (21103-049, Gibco) with B27 supplement (17504-044, Gibco), penicillin/streptomycin (15140, Gibco) and 1 mM L-glutamine (25030, Gibco). The cell culture was incubated at 37° C. in a humidified atmosphere of 5% CO2 in air. Half of the medium was changed with NB, B27 and 50 μM L-glutamine every 2 to 3 days. On day 12 in vitro (12 DIV), whole-cell patch clamp was performed. The internal solution contained 120 mM cesium chloride, 20 mM tetraethylammonium chloride, 2 mM magnesium chloride, 1 mM calcium chloride and 10 mM HEPES (pH 7.2). The external solution contained 137 mM sodium chloride, 1 mM sodium bicarbonate, 0.34 mM sodium phosphate dibasic, 5.37 mM potassium chloride, 0.44 mM potassium phosphate monobasic, 2.5 mM HEPES (pH 7.4) and 22.2 mM glucose. Samples mixed with 50 μM NMDA (M3262, Sigma) were arranged in linear array of up to 8 individual controlled pipes (List Medical, Germany) which were connected to solution reservoirs. Memantine (10 μM, M9292, Sigma) was used as a positive control. Pipettes were fire-polished to produce a pipette resistance of 3-5 MΩ. Holding potential of patched cells was kept at −80 mV and currents were recorded using Axopatch-200B amplifier (Axon Instruments, USA). Tetrodotoxin (5 μM) and bicuculline methiodide (20 μM) (0109, Tocris) were present in the bath solution to block synaptic transmission mediated by voltage-gated sodium channels and […], respectively. Data was analyzed by pClamp9 software and percentage of inhibition on NMDA-induced current was represented in comparison to solvent control.
The NMDA receptor is a gated ion channel, which allows inflow of current during a nerve impulse. Antagonists to the receptor would prevent the inflow of current.
In FIG. 1A, hippocampal neurons from embryonic day 18 rats were isolated, trypsinized, plated onto 35-mm plates at a density of 3×10^4 cells/plate and cultured in Neurobasal medium (NB) supplemented with B27 nutrient. Rat hippocampal neurons (10-14 DIV) were treated with NMDA (50 μM) in the absence or presence of the compound LC-02 (10 μg/mL). Data is presented as % of NMDA-induced current. DMSO is the solvent control.
(§1) In FIG. 1B, NMDA antagonistic effect of LC-02 on current responses of a single hippocampal neuron. NMDA (200 uM) was applied for 2.5 sec every 30 sec but these inter-response intervals have been deleted from the above figure for a better resolution of the kinetics of individual responses (blank space in trace). LC-02 (500 uM) was co-applied with NMDA.
In FIG. 1C, effects of LC-02 on pooled NMDA current responses. Normalized peak and plateau currents are shown in the absence (DMSO) and presence of LC-02.
as §1, with “8, (a)” for “1B,”, “LC-06” for “LC-02”, “NMDA. […] (b) Effects of LC-06 on pooled NMDA current responses. Normalized peak and plateau currents are shown in the absence (DMSO) and presence of LC-06.” for “NMDA.”
as §1, with “9, (a)” for “1B,”, “LC-24” for “LC-02”, “NMDA. […] (b) Effects of LC-24 on pooled NMDA current responses. Normalized peak and plateau currents are shown in the absence (DMSO) and presence of LC-24. […]” for “NMDA.”

[1] = tested on: rat primary cortical neurons; test: Neuron survival assay against NMDA insult (LDH release); format: cell-based; settings: NMDA 20 μM; for protection of rat primary cortical neurons from NMDA insults (LDH release, fold change vs DMSO): compounds 10-30 μg/ml, 11 DIV; for cell death (LDH release, cell cytotoxicity vs DMSO): compound 10 μg/mL, DIV 11
Description: Primary cortical and hippocampal neurons were prepared from embryonic day 18 (E18) Sprague-Dawley rats. Neurons were plated on 24-well plate (TPP, Corning) at a density of 2×10^5 cells per well using Neurobasal medium (Invitrogen) supplemented with 2% B27 (Invitrogen). Neurons at 11-12 days in vitro (12 DIV) were subjected to drug treatment. Neurons were pretreated with the test compound for 2 hours prior to NMDA treatment. 0.1 μM (+)-MK-801 Hydrogen Maleate (Sigma) was added as a positive control. Briefly, the neurons were rinsed with Locke's solution (5 mM potassium chloride, 128 mM sodium chloride, 2.7 mM calcium chloride, 1 mM di-sodium hydrogen orthophosphate, 5 mM HEPES and 10 mM glucose in Milli-Q water) without Mg^2+, and incubated with addition of glycine (10 μM) for 15 minutes. After the incubation, the neurons were co-treated with the test compound (dissolved in Locke's plus glycine solution) and NMDA (20 μM; Sigma) for 20 minutes. Neurons were rinsed with Locke's plus Mg^2+ and replaced with fresh growth medium. The cell death was assayed and quantified using the lactate dehydrogenase release assay (Roche) after 24 hours.
Embryonic rat cortical neurons (11 DIV) were treated with NMDA (20 μM) in the absence or presence of the LC series of compounds (10-30 μg/ml). […] LDH release in the medium after overnight incubation was measured and fold change was calculated when compared to the solvent control, DMSO.
Embryonic rat cortical neurons (DIV 11) were treated with NMDA (20 μM) in the absence or presence of LC-01 or LC-02 (μg/mL). LDH release in the medium after overnight incubation was measured and cell cytotoxicity was calculated in percentage when compared to the solvent control, DMSO.
Embryonic rat cortical neurons (DIV 11) were treated with NMDA (20 μM) in the absence or presence of LC-06 (μg/mL). LDH release in the medium after overnight incubation was measured and cell cytotoxicity was calculated in percentage when compared to the solvent control, DMSO.
Embryonic rat cortical neurons (11 DIV) were treated with NMDA (20 μM) in the absence or presence of LC-24 or LC-25 (μg/mL). LDH release in the medium after overnight incubation was measured and cell cytotoxicity was calculated in percentage when compared to solvent control (DMSO).

## CC[C@H]1N[C@@H](Cc2ccccc2)C(CC)(CC)O1 [LC-24]
NMDA receptor
  pooled NMDA current responses (normalized peak and plateau currents): significantly inhibits NMDA-induced current
  recovery of NMDA-induced current after compound was washed out: Partial recovery of NMDA-induced current
[1]
  protection of rat primary cortical neurons from NMDA insults (LDH release, fold change vs DMSO): significantly protected
  cell death (LDH release, cell cytotoxicity vs DMSO): cell death was markedly reduced

## CCCC1(CCC)O[C@@H](CC)N[C@H]1CC(C)C [LC-06]
NMDA receptor
  pooled NMDA current responses (normalized peak and plateau currents): significantly inhibits NMDA-induced current
  recovery of NMDA-induced current after compound was washed out: Partial recovery of NMDA-induced current
[1]
  protection of rat primary cortical neurons from NMDA insults (LDH release, fold change vs DMSO): significantly protected
  cell death (LDH release, cell cytotoxicity vs DMSO): cell death was markedly reduced

## CC[C@H]1N[C@@H](CC(C)C)C(CC)(CC)O1 [LC-02]
NMDA receptor; compound 10 μg/mL with NMDA 50 μM, rat hippocampal neurons 10-14 DIV
  NMDA induced current in hippocampal neurons: decreases in NMDA induced current
NMDA receptor
  pooled NMDA current responses (normalized peak and plateau currents): significantly inhibits NMDA-induced current
  recovery of NMDA-induced current after compound was washed out: Partial recovery of NMDA-induced current
[1]
  protection of rat primary cortical neurons from NMDA insults (LDH release, fold change vs DMSO): significantly protected
  cell death (LDH release, cell cytotoxicity vs DMSO): cell death was markedly reduced

Source: patent US8722714B2, “Oxazolidine derivatives as NMDA antagonists” (The Honk Kong University of Science and Technology, priority 2008, dated 2014)
